Results from PubChem BioAssay AID624167 (Sanford-Burnham Center for Chemical Genomics, 2012).
Calls of active or inactive are those of the source.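 How the source made its calls: active means mean IC50 for reducing PEG3 promoter reporter signal at or below a set limit, with IC50 above the limit in both counter screens; inactive means the rest, including counter screen hits.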

What was measured:
Test in all cases: inhibition of PEG-3 promoter-driven reporter – cell-based, HeLa, luciferase, CREF/GAPDH counter-screen panel, dose response (AID 624167)
PEG-3 [1] = molecular target: PEG-3 (UniProt Q6IN02); conditions: HeLa PEG-Prom luciferase reporter, overnight, CREF/GAPDH counter-screens, mean of runs
Sequence of PEG-3 (UniProt Q6IN02) (Q6IN02 whole entry, looked up): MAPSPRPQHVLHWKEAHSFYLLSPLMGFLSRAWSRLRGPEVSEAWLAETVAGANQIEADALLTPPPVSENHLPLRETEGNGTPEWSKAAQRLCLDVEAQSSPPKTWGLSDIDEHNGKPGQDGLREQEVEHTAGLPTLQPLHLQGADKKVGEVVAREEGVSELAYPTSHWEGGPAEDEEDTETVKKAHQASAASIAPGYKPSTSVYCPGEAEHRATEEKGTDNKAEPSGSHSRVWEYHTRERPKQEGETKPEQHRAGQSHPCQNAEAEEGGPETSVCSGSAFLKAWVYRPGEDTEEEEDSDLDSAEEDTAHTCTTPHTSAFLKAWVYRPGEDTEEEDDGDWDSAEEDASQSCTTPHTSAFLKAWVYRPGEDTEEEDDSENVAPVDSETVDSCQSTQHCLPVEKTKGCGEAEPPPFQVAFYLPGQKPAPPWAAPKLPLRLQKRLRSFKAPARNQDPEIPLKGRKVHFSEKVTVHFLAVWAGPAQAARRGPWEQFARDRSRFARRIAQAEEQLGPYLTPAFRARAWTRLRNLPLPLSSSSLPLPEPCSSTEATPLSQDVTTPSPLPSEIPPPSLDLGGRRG

PEG-3 [2] = conditions: HeLa PEG-Prom luciferase reporter, overnight, CREF/GAPDH counter-screens
Rat fibroblasts (CREF) = conditions: CREF/GAPDH counter-screens
[3] = run 1, dose range 1, individual replicate IC50 per panel
[4] = run 2, dose range 1, individual replicate IC50 per panel

SMILES | IC50 (PEG-3 [1]) | IC50 (PEG-3 [2]; [3]) [µM] | IC50 (PEG-3 [2]; [4]) [µM] | IC50 (Rat fibroblasts (CREF); mean of runs) | IC50 (Rat fibroblasts (CREF); [3]) [µM] | IC50 (Rat fibroblasts (CREF); [4]) [µM]
CCc1ccc(C(=O)Nc2nc3ccccc3[nH]2)cc1 | 2.59 µM | 2.24 | 2.95 | 0.476 µM | 0.298 | 0.654
COCCn1c(C)cc(C(=O)COC(=O)c2cccc(O)c2)c1C | 10.8 µM | 16.1 | 5.48 | 0.611 µM | 0.468 | 0.755
CC(C)(C)C(=O)Nc1ccc(NC(=O)c2ccco2)nc1 | 2.58 µM | 4.91 | 0.246 | 0.435 µM | 0.224 | 0.646
CC(=O)Nc1ccc(NC(=O)c2nc(S(=O)(=O)Cc3cccc(C)c3)ncc2Cl)cc1 | 7.65 µM | 9.47 | 5.84 | 6.67 µM | 4.5 | 8.85
CC(=O)NC(c1ccc(N(C)C)cc1)c1cc(Cl)c2cccnc2c1O (centres undefined) | 3.76 µM | 3.14 | 4.37 | 53.7 µM (inactive) | > 100 | 7.34
COc1cc(SC)ccc1C(=O)Nc1nc2ccccc2[nH]1 | inactive | 0.377 | > 100 | 0.296 µM | 0.305 | 0.288
Oc1c(Br)cc(Br)c2cccnc12 | 6.72 µM | 4.4 | 9.05 | 9.01 µM | 11.8 | 6.27
O=C(Nc1cccc(C(=O)O)c1)Nc1ccc2c(c1)OCO2 | 8.34 µM | 3.5 | 13.2 | 17.4 µM | 14.2 | 20.7
COC(CNC(=O)c1ccc2c3c(onc13)-c1ccccc1C2=O)OC | 7.48 µM | 9.32 | 5.65 | 18.4 µM | 17.6 | 19.2
CC(=O)n1cc(N(C(=O)CCl)c2ccc(C)cc2)c2ccccc21 | 9.36 µM | 11.3 | 7.38 | 3.96 µM | 5.38 | 2.53
Cc1cc(/C=N/Nc2ncnc(N)c2[N+](=O)[O-])c(C)n1-c1ccccc1 | 11 µM | 9.88 | 12 | 1.79 µM | 1.54 | 2.04
CN=c1scc(-c2ccccc2F)n1/N=C/c1ccc[nH]1 | inactive | 4.9 | > 100 | 4.52 µM | 4.41 | 4.63
CCCn1c(C)cc(C(=O)CN2C(=O)c3ccccc3S2(=O)=O)c1C | 4.03 µM | 3.24 | 4.83 | 6.19 µM | 6.32 | 6.06
CN(C)c1ccc(/C=C2\SC(=O)N(CCc3nnc(N)s3)C2=O)cc1 | 2.96 µM | 3.34 | 2.58 | 3.18 µM | 1.61 | 4.75
CC(C)Cc1ccc(C(C)C(N)=NCCc2ccccc2)cc1 (centres undefined) | 9.7 µM | 12.2 | 7.19 | 13.3 µM | 15 | 11.6
CCOC(=O)Cc1csc(NC(=S)NC(=O)c2ccc(Cl)cc2)n1 | 5.62 µM | 7.55 | 3.68 | 4.97 µM | 4.16 | 5.77

The next lines start with results.

IC50 (PEG-3 [1]) | SMILES | IC50 (PEG-3 [2]; [3]) [µM] | IC50 (PEG-3 [2]; [4]) [µM] | IC50 (Rat fibroblasts (CREF); mean of runs) | IC50 (Rat fibroblasts (CREF); [3]) [µM] | IC50 (Rat fibroblasts (CREF); [4]) [µM]
0.391 µM | O=C(O)c1cccc(COc2ccc(CO)cc2Cl)c1 | 0.202 | 0.581 | 8.35 µM | 8.63 | 8.08
0.55 µM | C=CCn1c(C)cc(C(=O)CN2C(=O)c3ccccc3S2(=O)=O)c1C | 0.795 | 0.306 | 2.71 µM | 1.68 | 3.73
1.23 µM | O=C(Nc1ccc([N+](=O)[O-])cc1)C(=O)Nc1cccc(C(=O)O)c1 | 1.05 | 1.4 | 2.67 µM | 2.35 | 3
1.61 µM | COc1cc(/C=N/O)ccc1OCc1ccc(C(=O)O)cc1 | 1.71 | 1.51 | 9.43 µM | 10.1 | 8.8
1.91 µM | COc1ccc(/C=C/c2nc3ccccc3n2C)cc1 | 1.28 | 2.54 | 3.46 µM | 3.41 | 3.51
0.552 µM | COc1ccc(-c2nc(-c3ccccn3)no2)cc1 | 0.765 | 0.338 | 0.529 µM | 0.472 | 0.586
2.02 µM | COc1ccc(C(=O)O/N=C(\N)c2ccccn2)cc1 | 3.11 | 0.926 | 1.62 µM | 1.32 | 1.93
1.26 µM | O=C(Nc1nc2ccccc2[nH]1)c1ccccc1F | 1.13 | 1.4 | 1.47 µM | 1.26 | 1.68
